In US20240325398A1, “COMBINATION THERAPIES” (Infinity Pharmaceuticals, Inc., priority 2014, published 2024):

Columns and labels:
[1] = test system: SU-DHL-10-epst; assay: Combination study, ATPLite 72 h, dose matrix (Synergy Score, CI50)
[2] = test system: SUDHL6; assay: Compound 1 with dexamethasone, CellTiter-Glo viability 72 h, combination index; type: cell-based; conditions: SUDHL6
Description: The effects of Compound 1 with dexamethasone were examined in a panel of cell lines. Cells were cultured and assayed as follows. Compound 1 was serially diluted with cell culture medium and various DMSO concentrations. The top concentration of Compound 1 exposed to cells was 3 uM for cell lines other than WSU-NHL and DOHH2. For WSU-NHL and DOHH2 cell lines, the top concentration of Compound 1 exposed to the cells was 0.3 uM. Dexamethasone was serially diluted in culture media and phosphate buffered saline (PBS). The top concentration of dexamethasone used on cells was 3 uM. Cells were at least 73% viable and were counted and diluted for plating at a density of about 92,000 cell/mL, 130 uL cells per well in 96 well plates for SUDHL6, Karpas 422, SUDHL4, WSU-NHL, RL, and DOHH2 cell lines. The SUDHL10 cell line was plated at a density of about 46,000 cells/mL, 130 uL cells per well in 96 well plates.
Various concentrations of Compound 1 and various combinations of dexamethasone were added to various wells of cells. Single agents (Compound 1 or dexamethasone alone) were also added to some wells of cells. Cells were incubated with compounds for 72 hours. To assay for effects of the compounds on cell viability, a CellTiter-Glo® luminescent cell viability assay (commercially available) was used. To each plate of cells, 100 uL CellTiter-Glo reagent was added, incubated, and luminescence quantified using a […].
The result for cell line SUDHL6 is depicted in FIG. 12 and in Table 12. […] Table 12 depicts combination index (CI) values for different combinations of dexamethasone/Compound 1 concentrations.

[3] = test system: DoHH2 tumor; type: in vivo
Description: In particular, tolerability of the combination treatment was assessed in DoHH2 tumor bearing CB17.SCID female mice (a follicular lymphoma subcutaneous model). […] Plasma samples were collected on day 7 (trough, 1, 2, 4, and 6 h post dose) and on day 14 (2 h post final dose).

C[C@H](Nc1ncnc2[nH]cnc12)c1cc2cccc(Cl)c2c(=O)n1-c1ccccc1 [Compound 1, (S)-3-(1-((9H-purin-6-yl)amino)ethyl)-8-chloro-2-phenylisoquinolin-1(2H)-one]
CI50 growth inhibition ([1]; combination with Dexamethasone): S (S=0.01 to <0.5) | CI50 inhibition ([1]; combination with Dexamethasone): S (S=0.01 to <0.5) | Synergy Score growth inhibition ([1]; combination with Dexamethasone): A3 (A3=>3) | Synergy Score inhibition ([1]; combination with Dexamethasone): A3 (A3=>3) | CI50 growth inhibition ([1]; combination with LEE011): S (S=0.01 to <0.5) | CI50 inhibition ([1]; combination with LEE011): S (S=0.01 to <0.5) | Synergy Score growth inhibition ([1]; combination with LEE011): A3 (A3=>3) | Synergy Score inhibition ([1]; combination with LEE011): A3 (A3=>3) | CI50 growth inhibition ([1]; combination with PCI-32765): S (S=0.01 to <0.5) | CI50 inhibition ([1]; combination with PCI-32765): S (S=0.01 to <0.5) | Synergy Score growth inhibition ([1]; combination with PCI-32765): A3 (A3=>3) | Synergy Score inhibition ([1]; combination with PCI-32765): A3 (A3=>3) | CI50 growth inhibition ([1]; combination with PD-0332991): S (S=0.01 to <0.5) | CI50 inhibition ([1]; combination with PD-0332991): S (S=0.01 to <0.5) | Synergy Score growth inhibition ([1]; combination with PD-0332991): A3 (A3=>3) | Synergy Score inhibition ([1]; combination with PD-0332991): A3 (A3=>3) | combination index (CI) ([2]; Compound 1 1.4 nM + Dexamethasone 1.4 nM): E (E = >1) | combination index (CI) ([2]; Compound 1 1.4 nM + Dexamethasone 4.1 nM): E (E = >1) | combination index (CI) ([2]; Compound 1 1.4 nM + Dexamethasone 12.3 nM): E (E = >1) | combination index (CI) ([2]; Compound 1 1.4 nM + Dexamethasone 37 nM): E (E = >1) | combination index (CI) ([2]; Compound 1 1.4 nM + Dexamethasone 111.1 nM): A (A = 0.0001 to <0.3) | combination index (CI) ([2]; Compound 1 1.4 nM + Dexamethasone 333.3 nM): A (A = 0.0001 to <0.3) | combination index (CI) ([2]; Compound 1 1.4 nM + Dexamethasone 1000 nM): A (A = 0.0001 to <0.3) | combination index (CI) ([2]; Compound 1 1.4 nM + Dexamethasone 3000 nM): A (A = 0.0001 to <0.3) | combination index (CI) ([2]; Compound 1 4.1 nM + Dexamethasone 1.4 nM): E (E = >1) | combination index (CI) ([2]; Compound 1 4.1 nM + Dexamethasone 4.1 nM): B (B = 0.3 to <0.5) | combination index (CI) ([2]; Compound 1 4.1 nM + Dexamethasone 12.3 nM): E (E = >1) | combination index (CI) ([2]; Compound 1 4.1 nM + Dexamethasone 37 nM): C (C = 0.5 to <0.7) | combination index (CI) ([2]; Compound 1 4.1 nM + Dexamethasone 111.1 nM): A (A = 0.0001 to <0.3) | combination index (CI) ([2]; Compound 1 4.1 nM + Dexamethasone 333.3 nM): A (A = 0.0001 to <0.3) | combination index (CI) ([2]; Compound 1 4.1 nM + Dexamethasone 1000 nM): A (A = 0.0001 to <0.3) | combination index (CI) ([2]; Compound 1 4.1 nM + Dexamethasone 3000 nM): A (A = 0.0001 to <0.3) | combination index (CI) ([2]; Compound 1 12.3 nM + Dexamethasone 1.4 nM): E (E = >1) | combination index (CI) ([2]; Compound 1 12.3 nM + Dexamethasone 4.1 nM): E (E = >1) | combination index (CI) ([2]; Compound 1 12.3 nM + Dexamethasone 12.3 nM): E (E = >1) | combination index (CI) ([2]; Compound 1 12.3 nM + Dexamethasone 37 nM): E (E = >1) | combination index (CI) ([2]; Compound 1 12.3 nM + Dexamethasone 111.1 nM): A (A = 0.0001 to <0.3) | combination index (CI) ([2]; Compound 1 12.3 nM + Dexamethasone 333.3 nM): A (A = 0.0001 to <0.3) | combination index (CI) ([2]; Compound 1 12.3 nM + Dexamethasone 1000 nM): A (A = 0.0001 to <0.3) | combination index (CI) ([2]; Compound 1 12.3 nM + Dexamethasone 3000 nM): A (A = 0.0001 to <0.3) | combination index (CI) ([2]; Compound 1 37 nM + Dexamethasone 1.4 nM): E (E = >1) | combination index (CI) ([2]; Compound 1 37 nM + Dexamethasone 4.1 nM): E (E = >1) | combination index (CI) ([2]; Compound 1 37 nM + Dexamethasone 12.3 nM): E (E = >1) | combination index (CI) ([2]; Compound 1 37 nM + Dexamethasone 37 nM): E (E = >1) | combination index (CI) ([2]; Compound 1 37 nM + Dexamethasone 111.1 nM): A (A = 0.0001 to <0.3) | combination index (CI) ([2]; Compound 1 37 nM + Dexamethasone 333.3 nM): A (A = 0.0001 to <0.3) | combination index (CI) ([2]; Compound 1 37 nM + Dexamethasone 1000 nM): A (A = 0.0001 to <0.3) | combination index (CI) ([2]; Compound 1 37 nM + Dexamethasone 3000 nM): A (A = 0.0001 to <0.3) | combination index (CI) ([2]; Compound 1 111.1 nM + Dexamethasone 1.4 nM): E (E = >1) | combination index (CI) ([2]; Compound 1 111.1 nM + Dexamethasone 4.1 nM): E (E = >1) | combination index (CI) ([2]; Compound 1 111.1 nM + Dexamethasone 12.3 nM): E (E = >1) | combination index (CI) ([2]; Compound 1 111.1 nM + Dexamethasone 37 nM): E (E = >1) | combination index (CI) ([2]; Compound 1 111.1 nM + Dexamethasone 111.1 nM): A (A = 0.0001 to <0.3) | combination index (CI) ([2]; Compound 1 111.1 nM + Dexamethasone 333.3 nM): A (A = 0.0001 to <0.3) | combination index (CI) ([2]; Compound 1 111.1 nM + Dexamethasone 1000 nM): A (A = 0.0001 to <0.3) | combination index (CI) ([2]; Compound 1 111.1 nM + Dexamethasone 3000 nM): A (A = 0.0001 to <0.3) | combination index (CI) ([2]; Compound 1 333.3 nM + Dexamethasone 1.4 nM): E (E = >1) | combination index (CI) ([2]; Compound 1 333.3 nM + Dexamethasone 4.1 nM): E (E = >1) | combination index (CI) ([2]; Compound 1 333.3 nM + Dexamethasone 12.3 nM): E (E = >1) | combination index (CI) ([2]; Compound 1 333.3 nM + Dexamethasone 37 nM): E (E = >1) | combination index (CI) ([2]; Compound 1 333.3 nM + Dexamethasone 111.1 nM): A (A = 0.0001 to <0.3) | combination index (CI) ([2]; Compound 1 333.3 nM + Dexamethasone 333.3 nM): A (A = 0.0001 to <0.3) | combination index (CI) ([2]; Compound 1 333.3 nM + Dexamethasone 1000 nM): A (A = 0.0001 to <0.3) | combination index (CI) ([2]; Compound 1 333.3 nM + Dexamethasone 3000 nM): A (A = 0.0001 to <0.3) | combination index (CI) ([2]; Compound 1 1000 nM + Dexamethasone 1.4 nM): E (E = >1) | combination index (CI) ([2]; Compound 1 1000 nM + Dexamethasone 4.1 nM): B (B = 0.3 to <0.5) | combination index (CI) ([2]; Compound 1 1000 nM + Dexamethasone 12.3 nM): E (E = >1) | combination index (CI) ([2]; Compound 1 1000 nM + Dexamethasone 37 nM): E (E = >1) | combination index (CI) ([2]; Compound 1 1000 nM + Dexamethasone 111.1 nM): A (A = 0.0001 to <0.3) | combination index (CI) ([2]; Compound 1 1000 nM + Dexamethasone 333.3 nM): A (A = 0.0001 to <0.3) | combination index (CI) ([2]; Compound 1 1000 nM + Dexamethasone 1000 nM): A (A = 0.0001 to <0.3) | combination index (CI) ([2]; Compound 1 1000 nM + Dexamethasone 3000 nM): A (A = 0.0001 to <0.3) | combination index (CI) ([2]; Compound 1 3000 nM + Dexamethasone 1.4 nM): A (A = 0.0001 to <0.3) | combination index (CI) ([2]; Compound 1 3000 nM + Dexamethasone 4.1 nM): A (A = 0.0001 to <0.3) | combination index (CI) ([2]; Compound 1 3000 nM + Dexamethasone 12.3 nM): A (A = 0.0001 to <0.3) | combination index (CI) ([2]; Compound 1 3000 nM + Dexamethasone 37 nM): A (A = 0.0001 to <0.3) | combination index (CI) ([2]; Compound 1 3000 nM + Dexamethasone 111.1 nM): A (A = 0.0001 to <0.3) | combination index (CI) ([2]; Compound 1 3000 nM + Dexamethasone 333.3 nM): A (A = 0.0001 to <0.3) | combination index (CI) ([2]; Compound 1 3000 nM + Dexamethasone 1000 nM): A (A = 0.0001 to <0.3) | combination index (CI) ([2]; Compound 1 3000 nM + Dexamethasone 3000 nM): A (A = 0.0001 to <0.3) | tumor volume ([3]; Compound 1 50 mg/kg QD PO plus dexamethasone 5 mg/kg Q3D IP, after 12 days, versus vehicle, Compound 1 alone or dexamethasone alone, FIG. 8): lower | tumor growth inhibition ([3]; Compound 1 50 mg/kg QD in combination with dexamethasone 5 mg/kg Q3D IP, compared to either monotherapy): greater tumor growth inhibition | tolerability of the combination (body weight) ([3]; co-administration of dexamethasone and Compound 1 in mice): tolerable
